Where two headings read alike, the source gives them in different places.
Experiments:
parainfluenza (hPIV3) = assay type: cell-based, human parainfluenza virus
[1] = tested on: Influenza A/Panama/2007/99; assay type: cell-based; conditions: for Effect of TRP channel antagonist on 8×Ca:Na formulation-mediated reduction of influenza infection: Calu-3 cells pretreated with antagonist (RR 1 μM, SKF96365 10 μM, RN1734 1-100 μM), then 8×Ca:Na formulation
[2] = tested on: Influenza A/Panama/2007/99; test: Influenza infection of normal human bronchial epithelial (NHBE) cells, viral titer by TCID50; assay type: cell-based, Influenza A (H3N2); conditions: for Effect of TRPV4 agonist on influenza replication in NHBE cells: agonist 1 μM one hour prior to infection and reapplied 3 h after, compared to PBS control
rhinovirus (RV16) = assay type: cell-based, human rhinovirus
[3] = Calu-3 cells, treatment alone, compared to untreated control
[4] = reduction of influenza infection, TCID50 24 h after infection
[5] = reduction of influenza infection, agonist applied apically 1 h before and again 3 h after infection, titer 24 h after infection
[6] = Calu-3 cells pretreated with ruthenium red 1 μM, then 8×Ca:Na formulation

CCCCCCCCCC(=O)O[C@@H]1[C@@H](C)[C@@]2(O)[C@@H](C=C(CO)C[C@@]3(O)C(=O)C(C)=C[C@@H]23)[C@@H]2C(C)(C)[C@]12OC(=O)CCCCCCCCC [4αPDD, 4α-Phorbol 12,13-didecanoate]
Effect on parainfluenza infection of Calu-3 cells (parainfluenza (hPIV3); Calu-3 cells, hPIV3, compared to untreated control): able to reduce | Active concentrations [1]: -9 to -5 M | Effect on influenza infection (viral titer) of Calu-3 cells [1]: reduces influenza infection | Max reduction in titer (Log10) [1]: 2.9 Log10 | Effect of TRPV4 agonist on influenza replication in NHBE cells [2]: reduced influenza replication | Effect on rhinovirus infection of Calu-3 cells (rhinovirus (RV16); Calu-3 cells, RV16, compared to untreated control): able to reduce

COc1cc(CNC(=O)CCCC/C=C/C(C)C)ccc1O [Capsacin]
Active concentrations [1]: -8 to -4 M | Max reduction in titer (Log10) [1]: 2.2 Log10

Cc1ccc(C(C)C)cc1O [Carvacrol]
Active concentrations [1]: −6.5 to −4M^ | Max reduction in titer (Log10) [1]: 3 Log10 | Effect on influenza infection (viral titer) of Calu-3 cells [1, 3]: reduced influenza titer in a dose responsive manner

O=C(O)c1ccccc1Nc1cccc(C(F)(F)F)c1 [Flufenamic acid]
Effect on influenza infection (viral titer) of Calu-3 cells [1, 3]: reduced influenza titer in a dose responsive manner | Max reduction in titer (Log10) [1, 4]: 2.5 Log10 | Active concentrations [1, 5]: -6 to -4 M

CC(C)C[C@H](NC(=O)c1cc2ccccc2s1)C(=O)N1CCN(C(=O)[C@H](CO)NS(=O)(=O)c2ccc(Cl)cc2Cl)CC1 [GSK1016790A]
Active concentrations [1]: -11 to -6 M | Max reduction in titer (Log10) [1]: 5.0 Log10 | Effect on influenza infection (viral titer) of Calu-3 cells [1, 3]: reduces influenza infection in a dose-dependent manner | Effect on influenza infection (viral titer) of Calu-3 cells ([1]; Calu-3 cells, treatment alone, compared to untreated control, listed as GSK10168790): the highest level of anti-viral efficacy in a dose-dependent manner | Effect of TRPV4 agonist on influenza replication in NHBE cells [2]: reduced influenza replication

O=C1NC(c2cccc([N+](=O)[O-])c2)=CCN1c1ccccc1O [Icilin]
Effect on influenza infection (viral titer) of Calu-3 cells [1, 3]: small, but measurable reduction of influenza titer | Max reduction in titer (Log10) [1, 4]: 1 Log10 | Active concentrations [1, 5]: -6 to -4 M

CC1CCC(C(C)C)C(O)C1 (centres unmarked) [Menthol]
Effect on influenza infection (viral titer) of Calu-3 cells [1, 3]: reduced influenza titer in a dose responsive manner | Max reduction in titer (Log10) [1, 4]: 2.5 Log10 | Active concentrations [1, 5]: -7 to -4 M

CC(C)NCCN(C(C)C)S(=O)(=O)c1ccc(Cl)cc1Cl [RN1734]
Effect of TRP channel antagonist on 8×Ca:Na formulation-mediated reduction of influenza infection [1]: inhibited the 8×Ca:Na formulation-mediated reduction of influenza infection in a dose dependent manner

O=[N+]([O-])c1cc(Cl)ccc1S(=O)(=O)N1CCN(Cc2ccccc2)CC1 [RN1747]
Active concentrations [1]: -8 to -4 M | Max reduction in titer (Log10) [1]: 2.3 Log10 | Effect on influenza infection (viral titer) of Calu-3 cells [1, 3]: reduces influenza infection in a dose-dependent manner

C=C(C)[C@]12C[C@@H](C)[C@@]34O[C@](Cc5ccccc5)(O[C@@H]1[C@@H]3C=C(COC(=O)Cc1ccc(O)c(OC)c1)C[C@]1(O)C(=O)C(C)=C[C@@H]41)O2 [Resiniferatoxin]
Active concentrations [1]: -6 to -4 M | Max reduction in titer (Log10) [1]: 3.3 Log10

N.N.N.N.N.N.N.N.N.N.N.N.N.N.[Cl-].[Cl-].[Cl-].[Cl-].[Cl-].[Cl-].[O-2].[O-2].[Ru+3].[Ru+3].[Ru+4] [Ruthenium Red]
Effect of antagonist on 8×Ca:Na formulation efficacy against parainfluenza (parainfluenza (hPIV3); [6]): the efficacy of the 8× treatment was reduced | Effect of antagonist on Formulation I reduction of influenza viral titer ([1]; Calu-3 cells pre-treated with ruthenium red 1 μM, then dry powder Formulation I): attenuated | Effect of antagonist on Formulation II reduction of influenza infection ([1]; Calu-3 cells pre-treated with ruthenium red 1 μM, then dry powder Formulation II): attenuated | Effect of TRP channel antagonist on 8×Ca:Na formulation-mediated reduction of influenza infection [1]: the effect on viral infection was reduced to levels comparable to the untreated control cells | Effect of antagonist on 8×Ca:Na formulation anti-viral action in NHBE cells ([2]; ruthenium red 1 μM before 8×Ca:Na formulation): blocked the anti-viral action of the Ca:Na formulation | Effect of antagonist on 8×Ca:Na formulation efficacy against rhinovirus (rhinovirus (RV16); [6]): the efficacy of the 8× treatment was reduced

COc1ccc(CCCOC(Cn2ccnc2)c2ccc(OC)cc2)cc1 (centres unmarked) [SKF96365]
Effect of TRP channel antagonist on 8×Ca:Na formulation-mediated reduction of influenza infection [1]: the effect on viral infection was reduced to levels comparable to the untreated control cells

From patent US20130203715A1, “USE OF TRP CHANNEL AGONISTS TO TREAT INFECTIONS” (Pulmatrix, Inc., priority 2010, published 2013)
